Results taken from patent US20220194939A1, “Novel compounds and methods of use treating fructose-related disorders or diseases” (Colorado Research Partners, LLC, priority 2019, published 2022).
Where a name gives a salt, the structure may show the parent alone.

molecular target: T1, KHK (Homo sapiens, UniProt P50053); experiment: coupled enzyme assay for KHK activity; assay type: biochemical; conditions: purified human recombinant KHK, PK/LDH coupled assay, A340 at 25° C., 0.1 mM ATP, 0.2 mM fructose; isoform (KHK-C or KHK-A) not given
T1 construct: (His)6 tag (N); thrombin cleavage site (N); made in house; host or cells: E. coli BL-21 (DE3)
T1 sequence (P50053 1-298): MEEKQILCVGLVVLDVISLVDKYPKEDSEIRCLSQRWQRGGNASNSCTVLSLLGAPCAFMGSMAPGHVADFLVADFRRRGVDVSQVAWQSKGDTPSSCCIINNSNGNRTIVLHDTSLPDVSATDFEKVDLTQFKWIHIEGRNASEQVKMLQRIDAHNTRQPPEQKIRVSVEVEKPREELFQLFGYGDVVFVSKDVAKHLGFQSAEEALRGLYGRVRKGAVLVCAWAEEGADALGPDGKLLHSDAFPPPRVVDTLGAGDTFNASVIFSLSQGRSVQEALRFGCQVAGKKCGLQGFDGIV
Excerpt: Specific coupled enzyme screening assays were developed for KHK-C and KHK-A using recombinant proteins. Purified human recombinant KHK-C and KHK-A were produced using by expression in E. coli BL-21 (DE3) using IPTG induction as a His-tagged fusion proteins and purified using Ni-NTA chromatography on His-Trap FF columns. For KHK-C, the coding region from NCBI refseq number NM_006488 was inserted at the Nde I site of pET28a(+) vector, which puts it downstream from an amino-terminal (His)6 tag and a thrombin cleavage site. The same was done for KHK-A using the coding regions from NCBI refseq number NM_000221.2. The protein was expressed in BL-21 (DE3) using IPTG induction and purified using Ni-NTA (GE His Trap FF) column. The protein was washed with 100 column volumes, eluted with 3 column volumes, and dialyzed with HEPES, pH 7.4 buffers containing 20, 500, and 0 mM imidazole, respectively. The dialysate was concentrated by ultrafiltration (10kD MWCO) to >15 mg/mL protein. The protein prep was >95% pure on SDS-PAGE and the molecular weight was confirmed by relative mobility to be 33,730 Da (34,826 expected).
The assay uses the product of the KHK reaction, ADP, to drive a signal measured in real time for measuring the reaction rate. This consists of a 3-step, coupled-enzyme process by which pyruvate kinase (PK), which converts the ADP from the KHK reaction along with phosphoenolpyruvate (PEP) to ATP and pyruvate, respectively. The pyruvate is converted along with NADH to lactate and NAD+ by lactate dehydrogenase (LDH). The disappearance of NADH is measured kinetically by monitoring A340 at 25° C. for 15 minutes. The enzymatic assay was carried out in a total reaction volume of 200 μL containing 33 mM triethanolamine-HCl, pH 7.4, 6 mM MgCl2, 100 mM KCl, 0.1 mM ATP, 1.33 mM PEP, 0.3 mM NADH, 0.2-1.0 U of PK, 0.2-1.0 U of LDH, and 150-240 nM KHK-C or KHK-A (0.01-0.02 U). Fructose was added to initiate the reactions to 0.2 mM, except for the no fructose controls which utilized water. This high-throughput assay was used to identify inhibitors that have an IC50 value<1 μM for KHK-C and to confirm that those values for KHK-A were not more than 2-fold lower.

SMILES | IC50
Cc1cccc(-n2ncc3ccc(NC(=O)[C@@H](N)CN)cc32)c1 [Compound 15, (S)-2,3-diamino-N-(1-(m-tolyl)-1H-indazol-6-yl)propanamide dihydrochloride] | 0.63 µM
Cc1cccc(-n2ncc3ccc(NC(=O)[C@H](N)CCO)cc32)c1 [Compound 12, (R)-2-amino-4-hydroxy-N-(1-(m-tolyl)-1H-indazol-6-yl)butanamide hydrochloride] | 0.86 µM
Cc1cccc(-n2ncc3ccc(NC(=O)[C@H](N)CN)cc32)c1 [Compound 14, (R)-2,3-diamino-N-(1-(m-tolyl)-1H-indazol-6-yl)propanamide dihydrochloride] | 1.1 µM
Cc1cccc(-n2ncc3ccc(NC(=O)C(CN)C(C)C)cc32)c1 (centres unmarked) [Compound 8, 2-(aminomethyl)-3-methyl-N-(1-(m-tolyl)-1H-indazol-6-yl)butanamide hydrochloride] | 4.9 µM
Cc1cccc(-n2ncc3ccc(NC(=O)[C@@H](N)COC(=O)c4cccnc4)cc32)c1 [Compound 25, (S)-2-amino-3-oxo-3-((1-(m-tolyl)-1H-indazol-6-yl)amino)propyl nicotinate hydrochloride] | > 1000 µM
Cc1cccc(-n2ncc3ccc(NC(=O)[C@H]4C[C@@H](N)C4)cc32)c1 [Compound 16, (cis)-3-amino-N-(1-(m-tolyl)-1H-indazol-6-yl)cyclobutanecarboxamide hydrochloride] | 0.6 µM
Cc1cccc(-n2ncc3ccc(NC(=O)[C@H](COC(=O)c4cccnc4)NC(=O)OC(C)C)cc32)c1 [Compound 33, (S)-2-((isopropoxycarbonyl)amino)-3-oxo-3-((1-(m-tolyl)-1H-indazol-6-yl)amino)propyl nicotinate] | > 1000 µM
CCc1nn(-c2cccc(C)c2)c2cc(NC(=O)[C@@H](N)CO)c(C)cc12 [Compound 46, (S)-2-amino-N-(3-ethyl-5-methyl-1-(m-tolyl)-1H-indazol-6-yl)-3-hydroxypropanamide hydrochloride] | 1.9 µM

Stronger by IC50, values ahead:

IC50 | SMILES
0.12 µM | Cc1cccc(-n2ncc3ccc(NC(=O)C(N)CO)cc32)c1 (centres unmarked) [Compound 1, 2-amino-3-hydroxy-N-(1-(m-tolyl)-1H-indazol-6-yl)propanamide hydrochloride]
0.12 µM | Cc1cccc(-n2ncc3ccc(NC(=O)[C@H](N)CO)cc32)c1 [Compound 2, (R)-2-amino-3-hydroxy-N-(1-(m-tolyl)-1H-indazol-6-yl)propanamide hydrochloride]
0.25 µM | Cc1cccc(-n2ncc3ncc(NC(=O)[C@@H](N)CO)cc32)c1 [Compound 45, (S)-2-amino-3-hydroxy-N-(1-(m-tolyl)-1H-pyrazolo[4,3-b]pyridin-6-yl)propanamide hydrochloride]
